Data set [1] relates to HaCaT. As to the kind of experiment: Cytotoxicity against human HaCaT cells at 50 to 100 uM after 24 hrs by MTT assay. The class given is cell-based.
Data set [2] concerns HaCaT. As to the kind of experiment: Antiinflammatory activity against IFN-gamma-stimulated human HaCaT cells assessed as inhibition of chemokine MDC production at 50 to 100 uM after 18 hrs by ELISA. The format is functional, cell-based. Background: ELISA stands for enzyme-linked immunosorbent assay.
The subject of data set [3] is RAW264.7. Description: Cytotoxicity against mouse RAW264.7 cells at 50 uM after 24 hrs by MTT assay. The class given is cell-based. To be noted: raw264.7, 24 h. (In general: Formazan colour is commonly taken as a measure of viable cells.)
Data set [4] deals with RAW264.7. As to the kind of experiment: Cytotoxicity against mouse RAW264.7 cells at 100 uM after 24 hrs by MTT assay. The class given is cell-based. To be noted: raw264.7, 24 h.

With `CCCCCCCCCCCCCCCC(=O)NC(C)C` [HEXADECANOIC ACID ISOPROPYLAMIDE], the Activity entry in the data set on HaCaT [1] is “Toxic”; with HaCaT [2] it was “Non-toxic”.
The like results for `CC/C=C\C/C=C\C/C=C\CCCCCCCC(=O)NC(C)C` were, in that order, “Toxic” and “Non-toxic”.
As to `CC/C=C\C/C=C\C/C=C\CCCCCCCC(=O)NCCc1c[nH]c2ccc(O)cc12`, the values for the Activity entry in the data set on HaCaT [1] and in the data set on HaCaT [2] were “Toxic” and “Non-toxic”, respectively.
As for `CCCCCCC/C=C/C(=O)CCCCCCCC(=O)NCCc1ccc(O)c(O)c1`, the Activity entry with RAW264.7 [3] was “Toxic”; in the data set with HaCaT [1] it was “Toxic”; with RAW264.7 [4] it was “Toxic”; in the data set on HaCaT [2], “Non-toxic”.
For `CC/C=C\C/C=C\C/C=C\CCCCCCCC(=O)NCCO`, the Activity result in the data set on HaCaT [1] is “Toxic”; with HaCaT [2], “Non-toxic”.
Consider `CCCCCCC/C=C/C(=O)CCCCCCCC(=O)N[C@H](C)CO`, for which the Activity result was “Toxic” in the data set with RAW264.7 [3], “Toxic” with HaCaT [1], “Toxic” in the data set with RAW264.7 [4] and “Non-toxic” with HaCaT [2].
Turning to `CCCCCCCC/C=C/C(=O)CCCCCCC(=O)N[C@H](C)CO`, the Activity result in the data set on RAW264.7 [3] is “Toxic”; in the data set with HaCaT [1], “Toxic”; in the data set with RAW264.7 [4], “Toxic”; in the data set with HaCaT [2], “Non-toxic”.
As to `CCCCCCCC/C=C\CCCCCCCCCCCC(=O)NC(C)C`, the values for the Activity result in the data set with HaCaT [1] and in the data set on HaCaT [2] were “Toxic” and “Non-toxic”, respectively.
Regarding `CC/C=C\C/C=C\C/C=C\CCCCCCCC(=O)O` [LINOLENIC ACID], the Activity result in the data set with HaCaT [1] was “Toxic”; with HaCaT [2], “Non-toxic”.
`CCCCCCCC/C=C/C(=O)CCCCCCC(=O)NC(C)C`: the Activity result in the data set with RAW264.7 [3] is “Toxic”; in the data set with HaCaT [1], “Toxic”; in the data set with RAW264.7 [4] it was “Toxic”; in the data set on HaCaT [2], “Non-toxic”.
With `CCCCCCCCCCCCCCCC(=O)NCCCl`, the Activity result was “Toxic” in the data set with HaCaT [1] and “Non-toxic” with HaCaT [2].
The like results for `CCCCC/C=C\C/C=C\CCCCCCCC(=O)NCCCl` were, in that order, “Toxic” and “Non-toxic”.
The like results for `CCCCCCCC/C=C\CCCCCCCC(=O)NCC(=O)O` [OLEOYL GLYCINE] were, in that order, “Toxic” and “Non-toxic”.
For `CCCCCCCC/C=C\CCCCCCCC(=O)NCCCl`, in that order: “Toxic” and “Non-toxic”.
Turning to `CCCCC/C=C\C/C=C\CCCCCCCC(=O)NCCO` [LINOLEOYLETHANOLAMIDE], the figures for the Activity entry in the data set on HaCaT [1] and in the data set with HaCaT [2] were “Toxic” and “Non-toxic”, respectively.
Turning to `CCCCCCCC(=O)/C=C/CCCCCCCC(=O)NCCO`, the Activity result in the data set on RAW264.7 [3] is “Toxic”; in the data set on HaCaT [1], “Toxic”; in the data set on RAW264.7 [4], “Toxic”; with HaCaT [2] it was “Non-toxic”.
`CCCCCCCCCCCCCCCC(=O)NCC(=O)O` [PALMITOYL GLYCINE]: the Activity entry was “Toxic” in the data set on HaCaT [1] and “Non-toxic” in the data set with HaCaT [2].
For `CCCCC/C=C\C/C=C\CCCCCCCC(=O)N[C@H](C)CO`, in that order: “Toxic” and “Non-toxic”.
With `CCCCCCCC(=O)/C=C/CCCCCCCC(=O)NCCc1c[nH]c2ccc(O)cc12`, the Activity result in the data set with RAW264.7 [3] was “Toxic”; in the data set with HaCaT [1] it was “Toxic”; with RAW264.7 [4] it was “Toxic”; in the data set with HaCaT [2], “Non-toxic”.
`CC/C=C\C/C=C\C/C=C\CCCCCCCC(=O)NCC(=O)O`: the results for the Activity result with HaCaT [1] and with HaCaT [2] were “Toxic” and “Non-toxic”, respectively.
On to `CCCCCCC/C=C/C(=O)CCCCCCCC(=O)NCCc1c[nH]c2ccc(O)cc12`, for which the Activity result is “Toxic” in the data set with RAW264.7 [3], “Toxic” in the data set on HaCaT [1], “Toxic” in the data set on RAW264.7 [4] and “Non-toxic” in the data set on HaCaT [2].
Take `CCCCCCCC/C=C\CCCCCCCCCCCC(=O)NCCCl`: the results for the Activity result in the data set on HaCaT [1] and in the data set on HaCaT [2] were “Toxic” and “Non-toxic”, respectively.
The like results for `CCCCCCCCCCCCCCCC(=O)N[C@H](C)CO` were, in that order, “Toxic” and “Non-toxic”.
For `CCCCCCCC/C=C\CCCCCCCC(=O)NCC(O)CO` (racemic), in that order: “Toxic” and “Non-toxic”.
For `CCCCCCCC(=O)/C=C/CCCCCCCC(=O)NCCCl`, the Activity result was “Toxic” in the data set on RAW264.7 [3], “Toxic” with HaCaT [1], “Toxic” in the data set on RAW264.7 [4] and “Non-toxic” in the data set on HaCaT [2].
`CCCCCCC/C=C/C(=O)CCCCCCCC(=O)NCCO`: the Activity result in the data set on RAW264.7 [3] is “Toxic”; in the data set with HaCaT [1], “Toxic”; in the data set on RAW264.7 [4], “Toxic”; in the data set with HaCaT [2], “Non-toxic”.
As to `CCCCCCCC/C=C\CCCCCCCCCCCC(=O)NCCO`, the Activity entry with HaCaT [1] was “Toxic”; with HaCaT [2], “Non-toxic”.
On to `CCCCC/C=C\C/C=C\CCCCCCCC(=O)NCC(=O)O` [LINOLEOYL GLYCINE], for which the Activity entry is “Toxic” in the data set on HaCaT [1] and “Non-toxic” in the data set with HaCaT [2].
The like results for `CCCCCCCC/C=C\CCCCCCCCCCCC(=O)NCC(O)CO` (racemic) were, in that order, “Toxic” and “Non-toxic”.
On to `CC/C=C\C/C=C\C/C=C\CCCCCCCC(=O)N[C@H](C)CO`, for which the Activity entry is “Toxic” in the data set on HaCaT [1] and “Non-toxic” with HaCaT [2].
As to `CCCCCCC/C=C/C(=O)CCCCCCCC(=O)NCC(O)CO` (racemic), the Activity result with RAW264.7 [3] is “Toxic”; with HaCaT [1], “Toxic”; in the data set on RAW264.7 [4] it was “Toxic”; in the data set on HaCaT [2], “Non-toxic”.
As for `CCCCCCCC/C=C/C(=O)CCCCCCC(=O)NCCc1ccc(O)c(O)c1`, the Activity entry in the data set with RAW264.7 [3] was “Toxic”; with HaCaT [1] it was “Toxic”; in the data set on RAW264.7 [4], “Toxic”; with HaCaT [2] it was “Non-toxic”.
Take `CCCCCCCCCCCCCCCC(=O)NCCO` [PALMIDROL]: the values for the Activity result in the data set on HaCaT [1] and with HaCaT [2] were “Toxic” and “Non-toxic”, respectively.
For `CCCCCCCC/C=C\CCCCCCCC(=O)N[C@H](C)CO`, in that order: “Toxic” and “Non-toxic”.
For `CCCCC/C=C\C/C=C\CCCCCCCC(=O)NC(C)C`, in that order: “Toxic” and “Non-toxic”.
The like results for `CCCCCCCC/C=C\CCCCCCCC(=O)NC(C)C` were, in that order, “Toxic” and “Non-toxic”.
Turning to `CC/C=C\C/C=C\C/C=C\CCCCCCCC(=O)NCC(O)CO` (racemic), the values for the Activity result in the data set on HaCaT [1] and in the data set on HaCaT [2] were “Toxic” and “Non-toxic”, respectively.
The like results for `CCCCCCCCCCCCCCCC(=O)NCC(O)CO` (racemic) were, in that order, “Toxic” and “Non-toxic”.
As to `CCCCCCCC/C=C\CCCCCCCC(=O)NCCO` [OLEOYLETHANOLAMIDE], the Activity result in the data set on HaCaT [1] was “Toxic”; with HaCaT [2] it was “Non-toxic”.
Consider `CCCCCCCC/C=C\CCCCCCCCCCCC(=O)N[C@H](C)CO`, for which the Activity result with HaCaT [1] is “Toxic”; in the data set with HaCaT [2] it was “Non-toxic”.
For `CC/C=C\C/C=C\C/C=C\CCCCCCCC(=O)NCCCl`, in that order: “Toxic” and “Non-toxic”.
The like results for `CCCCC/C=C\C/C=C\CCCCCCCC(=O)NCC(O)CO` (racemic) were, in that order, “Toxic” and “Non-toxic”.

These data come from ChEMBL document CHEMBL1671795, “Evaluation of endogenous fatty acid amides and their synthetic analogues as potential anti-inflammatory leads” (Bioorg Med Chem, 2011).
